Laboratory results reported in patent US8993566B2, “Quinoline compound composing 1,2,4-triazine-dione and use thereof” (Wuhan Shengyun Biopharma Co., Ltd., priority 2012, dated 2015).

Tests used:
[1] = tested on: human colon cancer cell HT-29; assay: In vitro anti-tumor cell activity (MTT), HT-29; assay type: cell-based; details: HT-29 cells, MTT, 72 h, Bliss method
Description: (§1) The digested cell solution was poured into a centrifuge tube, to which a culture media was added to stop the digestion. The centrifuge tube was centrifuged at 800 r/min for 10 min, the supernatant was removed gently and then 5 mL of the culture media was added. The cells were pipetted and mixed homogeneously. 10 μL cell suspension was taken into a cell counting plate for counting, wherein the cell concentration was adjusted to 10^4 cells/well. To each well of a 96-well plate, except for A1 well as blank control, was added 100 μL of the cell suspension. The 96-well plate was placed in an incubator and cultivated for 24 h. […] The 96-well plate was placed in an incubator and cultivated for 72 h. (3) The culture media containing the compounds in the 96-well plate was removed, and the cells were washed with phosphate buffered solution (PBS) twice. To each well was added 100 μL MTT (tetrazole) (0.5 mg/mL), after placing the plate in an incubator to incubate for 4 h, the MTT solution was removed and 100 μL dimethyl sulfoxide was added. The reaction product of survival cells with MTT, i.e. formazan, was dissolved completely by oscillation on a magnetic oscillator, and then placed into a microplate reader to measure the results, and the IC50 values of compounds could be deduced by Bliss method.

[2] = tested on: human nonsmall-cell lung cancer cell H460; assay: In vitro anti-tumor cell activity (MTT), H460; assay type: cell-based; details: H460 cells, MTT, 72 h, Bliss method
Description: as §1

[3] = tested on: human gastric cancer cell MKN-45; assay: In vitro anti-tumor cell activity (MTT), MKN-45; assay type: cell-based; details: MKN-45 cells, MTT, 72 h, Bliss method
Description: as §1

[4] = biological target: T1, c-Met kinase (His-tagged recombinant human Met (amino acids 974-end)) (Homo sapiens, UniProt P08581); assay: c-Met Enzyme Activity Inhibition Assay (ELISA); assay type: biochemical; details: 50 pM c-Met, 5 μM ATP, room temperature 20 min
T1 construct: His-tagged recombinant human Met (amino acids 974-end); His
T1 sequence (P08581 956-1390): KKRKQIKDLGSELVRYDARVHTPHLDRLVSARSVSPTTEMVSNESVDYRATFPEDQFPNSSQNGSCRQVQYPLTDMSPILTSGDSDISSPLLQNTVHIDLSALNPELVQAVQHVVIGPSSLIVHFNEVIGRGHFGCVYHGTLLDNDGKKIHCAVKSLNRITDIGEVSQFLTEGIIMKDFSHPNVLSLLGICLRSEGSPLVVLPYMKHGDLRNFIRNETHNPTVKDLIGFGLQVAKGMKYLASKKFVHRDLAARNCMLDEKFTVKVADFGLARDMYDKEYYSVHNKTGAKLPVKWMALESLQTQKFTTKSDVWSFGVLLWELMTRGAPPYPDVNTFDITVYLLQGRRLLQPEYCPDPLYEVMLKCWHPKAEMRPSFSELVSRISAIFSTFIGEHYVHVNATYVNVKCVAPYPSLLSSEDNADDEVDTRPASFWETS
Description: c-Met Enzyme Activity Inhibition Assay
The assay for the determination of c-Met kinase activity is based on an enzyme linked immunosorbant assay (ELISA). A compound of Formula I, 50 pM c-Met (His-tagged recombinant human Met (amino acids 974-end), expressed by baculovirus), and 5 μM ATP in an assay buffer (25 mM MOPS, pH 7.4, 5 mM MgCl2, […], 100 μM sodium orthovanadate, 0.01% Triton X-100, 1 mM DTT, final DMSO concentration 1% (v/v)) were incubated on a plate coated with 0.25 mg/mL POT at room temperature for 20 min. The reaction mixture was removed by washing and the phosphorylated polymer substrate was detected with 0.2 μg/mL phosphotyrosine specific monoclonal antibody (PY20) conjugated to horseradish peroxidase (HRP). After the addition of 1M phosphoric acid to stop the development, the chromogenic substrate (TMB) color was quantitated by spectrophotometry at 450 nm.

[5] = tested on: human hepatoma carcinoma cell line SMMC-7721; assay: In vitro anti-tumor cell activity (MTT), SMMC-7721; assay type: cell-based; details: SMMC-7721 cells, MTT, 72 h, Bliss method
Description: as §1

Row | Compound | HT-29 IC50 [1] | H460 IC50 [2] | MKN-45 IC50 [3] | IC50 for inhibiting c-Met kinase [4] | SMMC-7721 IC50 [5]
1 | C=CCn1c(=O)c(C(=O)Nc2ccc(Oc3ccnc4cc(OCCCN5CCCC5)c(OC)cc34)c(F)c2)nn(-c2ccc(Cl)cc2)c1=O [Example 38] | 0.54 µg/mL | 1.4 µg/mL | 0.62 µg/mL | 2.76 µg/mL | 1.8 µg/mL
2 | N-[3-fluoro-4-[6-methoxy-7-[3-(1-pyrrolidyl)propyloxy]quinolin-4-oxy]phenyl]-2-(4-methoxyphenyl)-4-methyl-3,5-dicarbonyl-2,3,4,5-tetrahydro-1,2,4-triazine-6-carboxamide [Example 11] | 1.4 µg/mL | 2.1 µg/mL | 3.3 µg/mL | 0.47 µg/mL | 2.5 µg/mL
3 | N-[3-fluoro-4-[6-methoxy-7-[3-(4-methyl-1-piperazinyl)propyloxy]quinolin]-4-oxy]phenyl]-2-(3-trifluoromethylphenyl)-4-benzyl-3,5-dicarbonyl-2,3,4,5-tetrahydro-1,2,4-triazine-6-carboxamide [Example 47] | 0.09 µg/mL | 1.1 µg/mL | 0.4 µg/mL | 5.92 µg/mL | 3.7 µg/mL
4 | N-[3-fluoro-4-[6-methoxy-7-[3-(1-piperidinyl)propyloxy]quinolin]-4-oxy]phenyl]-2-phenyl-4-benzyl-3,5-dicarbonyl-2,3,4,5-tetrahydro-1,2,4-triazine-6-carboxamide [Example 46] | 0.3 µg/mL | 0.8 µg/mL | 0.1 µg/mL |  | 1.4 µg/mL
5 | COc1cc2c(Oc3ccc(NC(=O)c4nn(-c5ccc(Br)cc5)c(=O)n(C)c4=O)cc3F)ccnc2cc1OCCCN1CCCCC1 [Example 7] | 0.27 µg/mL | 0.13 µg/mL | 0.033 µg/mL | 0.048 µg/mL | 0.21 µg/mL
6 | N-[3-fluoro-4-[6-methoxy-7-[3-(4-morpholinyl)propyloxy]quinolin]-4-oxy]phenyl]-2-(2,4-dichlorophenyl)-4-benzyl-3,5-dicarbonyl-2,3,4,5-tetrahydro-1,2,4-triazine-6-carboxamide [Example 43] | 0.32 µg/mL | 0.65 µg/mL | 0.07 µg/mL |  | 1.4 µg/mL
7 | COc1cc2c(Oc3ccc(NC(=O)c4nn(-c5ccc(C)cc5)c(=O)n(C)c4=O)cc3F)ccnc2cc1OCCCN1CCN(C)CC1 [Example 15, N-[3-fluoro-4-[6-methoxy-7-[3-(4-methyl-1-piperazinyl)propyloxy]quinolin-4-oxy]phenyl]-2-(4-methylphenyl)-4-methyl-3,5-dicarbonyl-2,3,4,5-tetrahydro-1,2,4-triazine-6-carboxamide;] | 0.5 µg/mL | 0.18 µg/mL |  | 0.009 µg/mL | 0.79 µg/mL
8 | N-[3-fluoro-4-[6-methoxy-7-[3-(4-morpholinyl)propyloxy]quinolin-4-oxy]phenyl]-2-(4-methylphenyl)-4-methyl-3,5-dicarbonyl-2,3,4,5-tetrahydro-1,2,4-triazine-6-carboxamide [Example 13] | 0.19 µg/mL | 0.28 µg/mL |  | 0.25 µg/mL | 0.67 µg/mL
9 | N-[3-fluoro-4-[6-methoxy-7-[3-(1-piperidinyl)propyloxy]quinolin-4-oxy]phenyl]-2-(4-methylphenyl)-4-methyl-3,5-dicarbonyl-2,3,4,5-tetrahydro-1,2,4-triazine-6-carboxamide [Example 12] | 0.11 µg/mL | 0.12 µg/mL |  | 0.18 µg/mL | 0.74 µg/mL
